From patent US10150740B2, “6,7-dihydropyrido[2,1-A]phthalazin-2-ones for the treatment and prophylaxis of hepatitis B virus infection” (priority 2015, dated 2018) come the findings set out here.

In the assay the test system is HBsAg. The assay is described as follows: cells. The conditions noted are these: Hepatitis B virus, HepG2.2.15, read-out: IC50 (HBsAg secretion).

Counter-ions that a name gives are not always drawn.

Protocol: HepG2.2.15 cells (Acs et al. Proc Natl Acad Sci USA, 84, (1987), 4641-4), a constitutively HBV-expressing cell line were cultured in DMEM+Glutamax-I medium (Invitrogen, Carlsbad, Calif., USA), supplemented with 10% fetal bovine serum (Invitrogen) and G418 (Invitrogen) at a final concentration of 200 mg/L and maintained in 5% CO2 at 37° C.
HepG2.2.15 cells were seeded in duplicate into white, 96-well plates at 1.5×10^4 cells/well. The cells were treated with a three-fold serial dilution series of the compounds in DMSO. The final DMSO concentration in all wells was 1% and DMSO was used as no drug control.
The HBsAg chemiluminescence immunoassay (CLIA) kit (Autobio Diagnostics Co., Zhengzhou, China, Catalog number: CL0310-2) was used to measure the levels of secreted HBV antigens semi-quantitatively. For the detection 50 μL/well culture supernatant was used and HBsAg was quantified using HBsAg chemiluminescence immunoassay (CLIA) kit (Autobio Diagnostics Co., Zhengzhou, China, Catalog number: CL0310-2), 50 μL of the supernatant was transferred to the CLIA assay plate and 50 μL of enzyme conjugate reagent was added into each well. The plates were sealed and gently agitated for 1 hour at room temperature. The supernatant-enzyme-mixture was discarded and wells were washed 6 times with 300 μL of PBS. The residual liquid was removed by plating the CLIA plate right side down on absorbent tissue paper. 25 μL of substrates A and B were added to each well. Luminance was measured using a luminometer (Mithras LB 940 Multimode Microplate Reader) after 10 minutes incubation. Dose-response curves were generated and the IC50 value was extrapolated by using the E-WorkBook Suite (ID Business Solutions Ltd., Guildford, UK). The IC50 was defined as the compound concentration (or conditioned media log dilution) at which HBsAg secretion was reduced by 50% compared to the no drug control.

In general, IC50 refers to the concentration needed to halve the response being measured. As to `COc1cc2c(cc1OC)-c1cc(=O)c(C(=O)O)cn1N(C(C)C)C2` [Example 4, 6-Isopropyl-9,10-dimethoxy-2-oxo-7H-pyrido[2,1-a]phthalazine-3-carboxylic acid], the half-maximal inhibitory concentration (IC50) was determined as 26100 nM.

Turning to `COc1cc2c(cc1OC)-c1cc(=O)c(C(=O)O)cn1N(CC(C)C)C2` [Example 5, 6-Isobutyl-9,10-dimethoxy-2-oxo-7H-pyrido[2,1-a]phthalazine-3-carboxylic acid], the IC50 turned out to be 248 nM.

Turning to `COc1cc2c(cc1OCCCCCNC(=O)OC(C)(C)C)CN(CC(C)C)n1cc(C(=O)O)c(=O)cc1-2` [Example 14, 9-[5-(Tert-butoxycarbonylamino)pentoxy]-6-isobutyl-10-methoxy-2-oxo-7H-pyrido[2,1-a]phthalazine-3-carboxylic acid], the IC50 amounted to 47 nM.

Take `COc1cc2c(cc1OC)-c1cc(=O)c(C(=O)O)cn1NC2` [Example 1, 9,10-Dimethoxy-2-oxo-6,7-dihydropyrido[2,1-a]phthalazine-3-carboxylic acid]: the IC50 worked out at 18700 nM.

Turning to `COCCCOc1cc2c(cc1OC)-c1cc(=O)c(C(=O)O)cn1N(CC(C)C)C2` [Example 6, 6-Isobutyl-10-methoxy-9-(3-methoxypropoxy)-2-oxo-7H-pyrido[2,1-a]phthalazine-3-carboxylic acid], the IC50 came out at 53 nM.

In the case of `COc1cc2c(cc1OCC1CCOCC1)CN(CC(C)C)n1cc(C(=O)O)c(=O)cc1-2` [Example 8, 6-Isobutyl-10-methoxy-2-oxo-9-(tetrahydropyran-4-ylmethoxy)-7H-pyrido[2,1-a]phthalazine-3-carboxylic acid], the IC50 is 44 nM.

On to `COc1cc2c(cc1OCCCCCN)CN(CC(C)C)n1cc(C(=O)O)c(=O)cc1-2` [Example 15, 9-(5-Aminopentoxy)-6-isobutyl-10-methoxy-2-oxo-7H-pyrido[2,1-a]phthalazine-3-carboxylic acid hydrochloride], for which the IC50 was 500 nM.

Regarding `COc1cc2c(cc1OCC(F)(F)F)CN(CC(C)C)n1cc(C(=O)O)c(=O)cc1-2` [Example 7, 6-Isobutyl-10-methoxy-2-oxo-9-(2,2,2-trifluoroethoxy)-7H-pyrido[2,1-a]phthalazine-3-carboxylic acid], the IC50 worked out at 172 nM.

Take `COc1cc2c(cc1OCCCC#N)CN(CC(C)C)n1cc(C(=O)O)c(=O)cc1-2` [Example 13, 9-(3-Cyanopropoxy)-6-isobutyl-10-methoxy-2-oxo-7H-pyrido[2,1-a]phthalazine-3-carboxylic acid]: the 50% inhibitory concentration (IC50) was found to be 110 nM.

Regarding `COc1cc2c(cc1OC)-c1cc(=O)c(C(=O)O)cn1N(C)C2` [Example 2, 9,10-Dimethoxy-6-methyl-2-oxo-7H-pyrido[2,1-a]phthalazine-3-carboxylic acid], the IC50 was determined as 2530 nM.

For `COc1cc2c(cc1OCCN1CCOCC1)CN(CC(C)C)n1cc(C(=O)O)c(=O)cc1-2` [Example 10, 6-Isobutyl-10-methoxy-9-(2-morpholinoethoxy)-2-oxo-7H-pyrido[2,1-a]phthalazine-3-carboxylic acid], the IC50 came out at 225 nM.

Take `COc1cc2c(cc1OCC(C)(C)CO)CN(CC(C)C)n1cc(C(=O)O)c(=O)cc1-2` [Example 11, 9-(3-Hydroxy-2,2-dimethyl-propoxy)-6-isobutyl-10-methoxy-2-oxo-7H-pyrido[2,1-a]phthalazine-3-carboxylic acid]: the IC50 amounted to 39 nM.

Regarding `COc1cc2c(cc1OCCCS(C)(=O)=O)CN(CC(C)C)n1cc(C(=O)O)c(=O)cc1-2` [Example 9, 6-Isobutyl-10-methoxy-9-(3-methylsulfonylpropoxy)-2-oxo-7H-pyrido[2,1-a]phthalazine-3-carboxylic acid], the IC50 turned out to be 624 nM.

Take `COc1cc2c(cc1OCCCCC(=O)O)CN(CC(C)C)n1cc(C(=O)O)c(=O)cc1-2` [Example 12, 9-(4-Carboxybutoxy)-6-isobutyl-10-methoxy-2-oxo-7H-pyrido[2,1-a]phthalazine-3-carboxylic acid]: the IC50 worked out at 9430 nM.

On to `C=CCN1Cc2cc(OC)c(OC)cc2-c2cc(=O)c(C(=O)O)cn21` [Example 3, 6-Allyl-9,10-dimethoxy-2-oxo-7H-pyrido[2,1-a]phthalazine-3-carboxylic acid], for which the IC50 was 740 nM.
